The structures appear in SMILES notation. Values joined by “and” are separate entries in the source; they are usually repeats but may differ in a detail not shown here. Equal values may be shown once. Inconclusive results and toxic doses are left out. *1 amine or outer side, *2 acyl side, *3 side chain or, on linkers, in order; H or OH if unused. Where a SMILES comes first, the peptide text is derived from it. Bridges are numbered along the chain shown (N, C = ends). Roman numbers before positions name the chains, in order. [ ]: non-standard residue; d: D form. Actinocin(9to1) = Cc1c2oc3c(C)ccc(C(=O)[*:1])c3nc-2c(C(=O)[*:2])c(N)c1=O; aThr = C[C@H](O)[C@H](N)C(=O)O; NMeV = CN[C@H](C(=O)O)C(C)C; Sar = CNCC(=O)O

Our source for the T/C values is PubChem BioAssay AID320 (DTP/NCI, 2004).

The assay deals with BDF1 mice, P329 reticulum cell sarcoma ip, survival T/C. Put plainly: NCI In Vivo Anticancer Drug Screen. Data for tumor model P329 Reticulum Cell Sarcoma (intraperitoneal) in B6D2F1 (BDF1) mice. The settings on record: endpoint: median survival time, schedule: Q01DX010 (ip), higher = longer survival. The protocol:
The antitumor activity of compounds was measured in mice bearing transplantable tumors. Survival or tumor size were measured and the results are expressed as the measurement made in the treated group (T) divided by the measurement made in the vehicle treated control group (C). The tumor model used in this assay is P329 Reticulum Cell Sarcoma (intraperitoneal) in B6D2F1 (BDF1) mice

Setting [1] is: dose: 2.5 mg/kg/injection, vehicle: saline.
Where [2] appears, read: dose: 5.0 mg/kg/injection, vehicle: saline.
Setting [3] is: dose: 10.0 mg/kg/injection, vehicle: saline.
The mark [4] stands for this setting: dose: 6.25 mg/kg/injection, vehicle: saline.
Where [5] appears, read: dose: 12.5 mg/kg/injection, vehicle: saline.
Setting [6] is: dose: 25.0 mg/kg/injection, vehicle: saline.
Where [7] appears, read: dose: 20.0 mg/kg/injection, vehicle: saline.
Setting [8] is: dose: 50.0 mg/kg/injection, vehicle: saline.
The mark [9] stands for this setting: dose: 100.0 mg/kg/injection, vehicle: saline.
Where [10] appears, read: dose: 16.0 mg/kg/injection, vehicle: saline.
Setting [11] is: dose: 200.0 mg/kg/injection, vehicle: saline.
Setting [12] is: dose: 40.0 mg/kg/injection, vehicle: saline.
[13] abbreviates: dose: 80.0 mg/kg/injection, vehicle: saline.

For the compound `CO[C@@H]1[C@@H](OC2OC(C)C(OC3CC(C)(O)C(OC(=O)CC(C)C)C(C)O3)C(N(C)C)C2O)[C@@H](CC=O)C[C@@H](C)C(=O)/C=C/C2O[C@H]2C[C@@H](C)OC(=O)C[C@H]1OC(C)=O` (stereo partly drawn), the T/C (dose: 37.5 mg/kg/injection, vehicle: saline) is 100 % of control; the T/C (dose: 75.0 mg/kg/injection, vehicle: saline) is 100 % of control and 107 % of control; the T/C (dose: 150.0 mg/kg/injection, vehicle: saline) is 103 % of control and 107 % of control; the T/C (dose: 300.0 mg/kg/injection, vehicle: saline) is 107 % of control and 114 % of control.
On to `N#[N+]c1cnc([O-])[nH]c1=O`, for which the T/C is, setting by setting: (dose: 1.25 mg/kg/injection, vehicle: saline) 122 % of control; under setting [1], 103 % of control; under setting [2], 110 % of control; under setting [3], 117 % of control.
On to `N=[N+]=CC(=O)OCC(N)C(=O)O` (stereo not drawn), for which the T/C was 153 % of control and 162 % of control under setting [4]; 175 % of control and 176 % of control under setting [5]; 87 % of control and 92 % of control under setting [6].
As for `CC[n+]1c(-c2ccccc2)c2cc(N)ccc2c2ccc(N)cc21`, the T/C is, setting by setting: under setting [1], 114 % of control; under setting [7], 107 % of control.
For `COc1cc(-c2ccc(Nc3ccccc3C(=O)O)c(OC)c2)ccc1Nc1ccccc1C(=O)O`, the T/C by setting is: under setting [5], 100 % of control; under setting [6], 103 % of control; under setting [8], 110 % of control; under setting [9], 110 % of control.
Consider `c1ccc(CNc2ncnc3[nH]ncc23)cc1`, for which the T/C runs as follows: (dose: 8.0 mg/kg/injection, vehicle: saline) 103 % of control and 115 % of control; under setting [10], 107 % of control.
With `Cc1c2oc3c(C)ccc(C(=O)N[C@@H]4C(=O)N[C@H](C(C)C)C(=O)N5CCC[C@H]5C(=O)N(C)CC(=O)N(C)[C@@H](C(C)C)C(=O)O[C@H]4C)c3nc-2c(C(=O)N[C@@H]2C(=O)N[C@H](C(C)C)C(=O)N3CCC[C@H]3C(=O)N(C)CC(=O)N(C)[C@@H](C(C)C)C(=O)O[C@H]2C)c(N)c1=O` (I: [aThr][dV]P[Sar][NMeV] / II: [aThr][dV]P[Sar][NMeV]; ester I:1-I:C, II:1-II:C; linker I:N-II:N via Actinocin(9to1)), the T/C is 115 % of control and 120 % of control (dose: 12.5 micrograms/kg/injection, vehicle: other); 166 % of control (dose: 50.0 micrograms/kg/injection, vehicle: other).
Regarding `CC[C@]1(O)C[C@H]2CN(CCc3c([nH]c4ccccc34)[C@@](C(=O)OC)(c3cc4c(cc3OC)N(C=O)[C@H]3[C@@](O)(C(=O)OC)[C@H](OC(C)=O)[C@]5(CC)C=CCN6CC[C@]43[C@@H]65)C2)C1`, the T/C (dose: 0.03 mg/kg/injection, vehicle: saline) was 100 % of control and 105 % of control; the T/C (dose: 0.06 mg/kg/injection, vehicle: saline) is 104 % of control and 113 % of control; the T/C (dose: 0.12 mg/kg/injection, vehicle: saline) was 114 % of control.
In the case of `CSc1ncnc2nc[nH]c12`, under setting [6], the T/C is 115 % of control and 123 % of control.
With `CS(=O)(=O)OCC(O)C(O)C(O)C(O)COS(C)(=O)=O` (stereo not drawn), the T/C is 100 % of control under setting [6]; 100 % of control and 103 % of control under setting [8]; 107 % of control under setting [9]; 121 % of control and 123 % of control under setting [11].
On to `O=NN(CCCl)C(=O)NCCCl`, for which the T/C (dose: 3.13 mg/kg/injection, vehicle: saline) is 158 % of control; the T/C under setting [4] is 157 % of control and 158 % of control; the T/C under setting [5] is 103 % of control.
Take `Nc1nc(=S)c2ncn(C3OC(CO)C(O)C3O)c2[nH]1` (stereo not drawn): the T/C runs as follows: (dose: 4.0 mg/kg/injection, vehicle: saline) 110 % of control; under setting [10], 90 % of control.
On to `O=c1[nH]c(=O)n(C2CC(O)C(CO)O2)cc1F` (stereo not drawn), for which the T/C is, setting by setting: under setting [2], 103 % of control; under setting [3], 110 % of control and 111 % of control; under setting [7], 123 % of control; under setting [12], 150 % of control; under setting [13], 161 % of control.
Regarding `Cn1c(N)nc2nc[nH]c2c1=S`, the T/C was 100 % of control under setting [3], 106 % of control under setting [7], 100 % of control under setting [12] and 106 % of control under setting [13].
As to `S=P(N1CCOCC1)(N1CC1)N1CC1`, the T/C was 100 % of control under setting [1]; 100 % of control and 107 % of control under setting [2]; 100 % of control and 119 % of control under setting [3]; 107 % of control and 115 % of control under setting [7].
Regarding `C#CCN(C)Cc1ccccc1`, the T/C reads like this: under setting [6], 100 % of control; under setting [8], 100 % of control; under setting [9], 93 % of control; under setting [11], 106 % of control.
Take `N=C(N)SCc1c2ccccc2c(CSC(=N)N)c2ccccc12`: the T/C under setting [1] is 112 % of control, the T/C under setting [2] is 118 % of control, the T/C under setting [3] is 106 % of control and the T/C under setting [7] was 118 % of control.
Take `CN(C)/N=N/c1nc[nH]c1C(N)=O`: the T/C by setting is: under setting [6], 121 % of control; under setting [9], 169 % of control; under setting [11], 100 % of control and 110 % of control.
